Experimental data: patent US11253509B2, “Methods of treatment for cystic fibrosis” (Vertex Pharmaceuticals Incorporated, priority 2017, dated 2022)
Entries after “also recorded” stand apart in the source; their conditions may differ.

How the values were obtained:
[1] = Compound I monotherapy safety in healthy subjects; type: in vivo, human; settings: multiple doses up to 400 mg qd for 10 days
[2] = Preclinical reproductive toxicology studies; type: in vivo
F508del-CFTR [3] = target: T1, F508del-CFTR (Homo sapiens, UniProt P13569, DEL508-508); experiment: Membrane potential optical assay (F508del-CFTR correction); type: cell-based; design: expressed in transfected cells; settings: NIH3T3 mouse fibroblasts stably expressing F508del, 18-24 hours
From the text: Membrane Potential Optical Methods for Assaying Properties of F508del-CFTR Modulators
An optical assay was employed to measure changes in membrane potential to determine the CFTR modulator properties of compounds. The assay utilized fluorescent voltage sensing dyes to measure changes in membrane potential using a fluorescent plate reader (e.g., FLIPR III, Molecular Devices, Inc.) as a readout for increase in functional F508del in NIH 3T3 cells. The driving force for the response was the creation of a chloride ion gradient in conjunction with channel activation and concurrent with compound treatment by a single liquid addition step after the cells had previously been loaded with a voltage sensing dye.
NIH3T3 mouse fibroblasts stably expressing F508del were used for optical measurements of membrane potential. The cells were maintained at 37° C. in 5% CO2 and 90% humidity in Dulbecco's modified Eagle's medium supplemented with 2 mM glutamine, 10% fetal bovine serum, 1×NEAA, β-ME, 1× pen/strep, and 25 mM HEPES in 175 cm^2 culture flasks. […] The cells were then activated and treated with Compound I. After 18-24 hours, fluorescence from the voltage sensing dye in the cells was measured to assess changes in the membrane potential as a read out for increase in functional F508del CFTR in the NIH3T3 cells.

F508del-CFTR [4] = target: T1, F508del-CFTR; experiment: Ussing chamber assay, chloride transport in F508del/F508del-HBE cells; type: cell-based; design: CF-HBE cells were isolated from patients homozygous for F508del (F508del/F508del-HBE); endogenous in cells; host or cells: primary F508del/F508del-HBE cells from bronchial tissue of CF patients
Description: Ussing chamber experiments were performed on polarized airway epithelial cells expressing F508del to further characterize the F508del modulators identified in the optical assay above. Non-CF and CF airway epithelia were isolated from bronchial tissue, cultured using methods well known in the art, and plated onto Costar® Snapwell™ filters that were precoated with NIH3T3-conditioned media. After four days the apical media was removed and the cells were grown at an air liquid interface for >14 days prior to use. […] CF-HBE cells were isolated from patients homozygous for F508del (F508del/F508del-HBE) or heterozygous for F508del and a mutation associated with minimal CF transmembrane conductance regulator (CFTR) function (MF) that is not expected to respond to Compound II, Compound III, Compound III-d, and the combination of Compound II and III, or Compound II and III-d (F508del/MF-HBE).
HBE cells grown on Costar® Snapwell™ cell culture inserts were mounted in an Ussing chamber (Physiologic Instruments, Inc., San Diego, Calif.), and the transepithelial resistance and short-circuit current in the presence of a basolateral to apical Cl^− gradient (ISC) were measured using a voltage-clamp system (Department of Bioengineering, University of Iowa, Iowa). Briefly, HBE cells were examined under voltage-clamp recording conditions (Vhold=0 mV) at 37° C. The basolateral solution contained (in mM) 145 NaCl, 0.83 K2HPO4, 3.3 KH2PO4, 1.2 MgCl2, 1.2 CaCl2, 10 Glucose, 10 HEPES (pH adjusted to 7.35 with NaOH) and the apical solution contained (in mM) 145 NaGluconate, 1.2 MgCl2, 1.2 CaCl2, 10 glucose, 10 HEPES (pH adjusted to 7.35 with NaOH).
Ussing Chamber Assay Procedure
A basolateral to apical membrane Cl^− concentration gradient was set up as follows. Normal Ringer's solution was used on the basolateral membrane, whereas apical NaCl was replaced by equimolar sodium gluconate (titrated to pH 7.4 with NaOH) to give a large Cl^− concentration gradient across the epithelium. […] Chloride current was measured to assess the increase in functional CFTR in the cell membrane. […]

F508del-CFTR [5] = target: T1, F508del-CFTR; experiment: F508del-CFTR processing and trafficking (170 to 180 kDa band) in F508del/F508del-HBE cells; type: cell-based; design: CF-HBE cells were isolated from patients homozygous for F508del (F508del/F508del-HBE); endogenous in cells; host or cells: primary F508del/F508del-HBE cells from bronchial tissue of CF patients
From the text: The CFTR protein delivered to the cell surface by Compound I alone or in combination with Compound II (Compound I/Compound II) was potentiated by Compound III.

CFTR = target: T2, CFTR (Homo sapiens, UniProt P13569, DEL508-508); experiment: CFTR chloride transport in human bronchial epithelial (HBE) cells in vitro (Example 7); type: cell-based
T2 construct: In human bronchial epithelial (HBE) cells studied in vitro; endogenous in cells; host or cells: human bronchial epithelial (HBE) cells
T2 sequence (P13569 with tags, fused parts or gaps DEL508-508): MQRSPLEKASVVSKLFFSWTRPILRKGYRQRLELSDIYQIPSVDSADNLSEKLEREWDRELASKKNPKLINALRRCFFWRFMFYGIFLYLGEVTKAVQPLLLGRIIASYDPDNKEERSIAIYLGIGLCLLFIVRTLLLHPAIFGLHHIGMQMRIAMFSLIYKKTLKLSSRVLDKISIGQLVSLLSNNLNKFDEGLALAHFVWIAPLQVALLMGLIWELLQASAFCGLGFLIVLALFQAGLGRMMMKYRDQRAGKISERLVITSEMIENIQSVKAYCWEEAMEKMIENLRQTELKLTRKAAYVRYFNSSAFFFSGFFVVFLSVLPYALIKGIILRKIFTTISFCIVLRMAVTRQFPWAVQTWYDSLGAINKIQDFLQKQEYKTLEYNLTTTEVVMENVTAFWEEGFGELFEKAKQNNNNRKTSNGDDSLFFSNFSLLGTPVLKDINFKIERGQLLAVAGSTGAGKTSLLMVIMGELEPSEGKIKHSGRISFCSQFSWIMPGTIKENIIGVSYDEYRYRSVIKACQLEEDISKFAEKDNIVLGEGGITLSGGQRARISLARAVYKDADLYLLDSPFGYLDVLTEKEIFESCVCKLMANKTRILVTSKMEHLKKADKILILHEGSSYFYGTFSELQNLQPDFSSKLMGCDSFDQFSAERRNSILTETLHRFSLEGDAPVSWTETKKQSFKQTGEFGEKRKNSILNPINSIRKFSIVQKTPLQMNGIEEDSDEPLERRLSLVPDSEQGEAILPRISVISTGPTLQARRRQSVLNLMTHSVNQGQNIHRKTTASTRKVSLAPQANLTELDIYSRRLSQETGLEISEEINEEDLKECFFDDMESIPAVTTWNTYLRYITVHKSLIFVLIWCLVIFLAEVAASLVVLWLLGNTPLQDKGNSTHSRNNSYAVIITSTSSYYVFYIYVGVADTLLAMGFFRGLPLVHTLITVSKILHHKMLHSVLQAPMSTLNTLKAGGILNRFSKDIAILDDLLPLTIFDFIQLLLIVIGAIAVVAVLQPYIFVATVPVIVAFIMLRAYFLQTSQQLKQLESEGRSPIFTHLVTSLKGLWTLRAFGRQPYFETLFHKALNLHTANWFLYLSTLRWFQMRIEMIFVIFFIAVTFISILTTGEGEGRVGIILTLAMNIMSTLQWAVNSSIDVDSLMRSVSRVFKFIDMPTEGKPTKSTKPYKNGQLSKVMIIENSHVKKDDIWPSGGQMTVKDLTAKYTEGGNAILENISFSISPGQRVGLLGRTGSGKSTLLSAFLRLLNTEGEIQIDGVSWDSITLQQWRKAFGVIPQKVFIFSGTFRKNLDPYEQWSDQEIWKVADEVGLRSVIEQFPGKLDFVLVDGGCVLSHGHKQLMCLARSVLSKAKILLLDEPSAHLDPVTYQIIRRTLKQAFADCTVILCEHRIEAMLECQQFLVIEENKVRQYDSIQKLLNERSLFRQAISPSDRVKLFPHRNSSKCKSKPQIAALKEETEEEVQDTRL

T1 sequence (P13569 with tags, fused parts or gaps DEL508-508): as above

Structure (SMILES) | safety and tolerability [1] | reproductive toxicology findings [2] | EC50 (F508del-CFTR [3]) [µM] | Emax (F508del-CFTR [3]; read-out: % Efficacy relative to Compound II) [%] | chloride transport (F508del-CFTR [4]) | effect on chloride transport in relation to the effect of Compound II (F508del-CFTR [4]) | steady-state levels, fold of untreated levels (F508del-CFTR [5]; F508del/F508del-HBE cells, 16 to 24 hours, 1 μM Compound I alone) [fold] | processing and trafficking of F508del-CFTR (F508del-CFTR [5]; in vitro) | potentiation of CFTR protein delivered to the cell surface by Compound I alone or with Compound II (CFTR) | potentiation of F508del-CFTR delivered to the cell surface by Compound I alone or with Compound II (F508del-CFTR [4])
C[C@@H]1CN(c2nc(-n3ccc(OCCC4(C(F)(F)F)CC4)n3)ccc2C(=O)NS(=O)(=O)c2ccccc2)C(C)(C)C1 [Compound I, N-(benzenesulfonyl)-6-[3-[2-[1-(trifluoromethyl)cyclopropyl]ethoxy]pyrazol-1-yl]-2-[(4(S))-2,2,4-trimethylpyrrolidin-1-yl]pyridine-3-carboxamide] | safe and well tolerated | no adverse findings of note | < 3 | ≥ 100 | enhanced chloride transport | additive to the effect of Compound II | 6.5 | improved the processing and trafficking of F508del-CFTR; also recorded: facilitates the processing and trafficking of F508del-CFTR | – | –
CC(C)(C)c1cc(C(C)(C)C)c(NC(=O)c2c[nH]c3ccccc3c2=O)cc1O [Compound III, N-(5-hydroxy-2,4-di-tert-butyl-phenyl)-4-oxo-1H-quinoline-3-carboxamide, reference compound] | – | – | – | – | – | – | – | – | potentiated | potentiated
